Assay results from US7687434B2, “Method of improving yield and vigor of plants” (Monsanto Technology, LLC, priority 2000, dated 2010).
Converted amounts (≈) assume the structure as drawn.

Columns and labels:
[1] = test system: soybean plants (CSR2121 variety); assay: Soybean seed treatment field trial, upper Midwestern United States; type: in vivo
soybean plants = assay: Soybean seed treatment field trial on five farms in South Africa; type: in vivo
[2] = test system: Gaeumannomyces graminis var. tritici; assay: In vitro inhibition of mycelial growth on silthiopham-amended agar; type: cell-based; for ACTIVITY RATING (0-3): key: 0 = no; 1 = weak; 2 = good; 3 = excellent
[3] = test system: Fusarium solani, var. coeruleum 4-2; assay: as above; type: cell-based; for ACTIVITY RATING (0-3): key: 0 = no; 1 = weak; 2 = good; 3 = excellent
[4] = test system: Fusarium solani, var. coeruleum 4-5; assay: as above; type: cell-based; for ACTIVITY RATING (0-3): key: 0 = no; 1 = weak; 2 = good; 3 = excellent
[5] = test system: Fusarium solani, var. pisi 34-1; assay: as above; type: cell-based; for ACTIVITY RATING (0-3): key: 0 = no; 1 = weak; 2 = good; 3 = excellent
[6] = test system: Fusarium solani, var. pisi 34-2; assay: as above; type: cell-based; for ACTIVITY RATING (0-3): key: 0 = no; 1 = weak; 2 = good; 3 = excellent
Rhizoctonia solani 15-9 = assay: as above; type: cell-based
Rhizoctonia solani 15-10 = assay: as above; type: cell-based
[7] = test system: Fusarium oxysporum var. pisi race1 33-9; assay: as above; type: cell-based; for ACTIVITY RATING (0-3): key: 0 = no; 1 = weak; 2 = good; 3 = excellent
[8] = test system: Fusarium oxysporum var. pisi race1 33-10; assay: as above; type: cell-based; for ACTIVITY RATING (0-3): key: 0 = no; 1 = weak; 2 = good; 3 = excellent
[9] = test system: Fusarium oxysporum var. pisi race1 33-11; assay: as above; type: cell-based; for ACTIVITY RATING (0-3): key: 0 = no; 1 = weak; 2 = good; 3 = excellent
Septoria nodorum = assay: as above; type: cell-based; conditions: Glum blotch
Phytopthera infestans = type: cell-based; conditions: Late blight
Colletotrichum trifolii = assay: In vitro inhibition of mycelial growth on silthiopham-amended agar; type: cell-based; conditions: Root rot in alfalfa; note: key: 0 = no; 1 = weak; 2 = good; 3 = excellent
[10] = test system: microorganisms that are known to be soybean pathogens; assay: In vitro inhibition of mycelial growth, summary for soybean pathogens; type: cell-based; conditions: summary of Table 6
[11] = seed treatment prior to planting, at plant maturity
[12] = Fusarium solani, 96 h, Czapek-Dox agar, 4 days at 18° C., log-log fit
[13] = Fusarium oxysporum, 96 h, Czapek-Dox agar, 4 days at 18° C., log-log fit

## C=CCNC(=O)c1c([Si](C)(C)C)sc(C)c1C [Silthiopham, 4,5-dimethyl-N-(2-propenyl)-2-(trimethylsilyl)-3-thiophenecarboxamide]
[1]; FIG. 3, soybean yield
  improvement in yield compared with untreated control beans: no improvement over the untreated control
[1]; FIG. 4
  seed weight increase (beans larger) than untreated control beans: performed comparably with untreated beans
[1]; FIG. 5
  plant height increase (plants taller) than untreated control beans: performed comparably with untreated beans
[1]; percent of canopy closure, 100% is total coverage
  Canopy (% coverage): 78%
[1]; [11]
  Plant Height: 22.8 inches
  Seed Weight: 11.0 gm/100 seeds
[1]; seed treatment prior to planting, determined at plant maturity, adjusted to 13% moisture
  Grain Yield: 36.4 bu/ac
[1]; standard 1-9 scale, 1 worst, 9 best and most vigorous
  Vigor (1 worst-9 best): 6
Soybean plants; Avg. of farms 3-5 (dryland)
  SOYBEAN YIELD: 1949 kg/ha
Soybean plants; Farm 4, dryland, cultivar SNK444, sand clay 12%
  SOYBEAN YIELD: 1844 kg/ha
Soybean plants; Farm 5, dryland, cultivar SNK400, clay 40%
  SOYBEAN YIELD: 2054 kg/ha
Soybean plants; combination vs standard Mollyflo+Bradyrhizobium, silthiopham alone vs non-treated control
  grain yield, statistical comparison: did not significantly differ from the non-treated control
Soybean plants; compared to the standard Mollyflo+inoculant treatment
  visual appearance of vegetative growth: appeared visually greener and more vigorous
Soybean plants; farms 4 and 5, FIGS. 6 and 7, plants in 400-mm rows
  number of nodules on plant roots: did not substantially affect the number of nodules
Soybean plants; farms 4 and 5, FIGS. 8 and 9, 2 meters per plot
  plant weight: no effect on plant weight
Soybean plants; where silthiopham was included in the treatment
  visual appearance of nodules: Nodules visually appeared healthier
[2]; Gaeumannomyces graminis, 96 h, Czapek-Dox agar, 4 days at 18° C., log-log fit
  EC50: 0.001 µg/mL (≈ 0.00374 µM)
[2]; Take-all disease in cereals
  ACTIVITY RATING (0-3): 3
[2]; summary of Table 6
  activity against Gaerumannomyces graminis var. tritici (in words): excellent activity
[3]; [12]
  EC50: 113 µg/mL (≈ 423 µM)
[3]; Root rot
  ACTIVITY RATING (0-3): 0
[4]; [12]
  EC50: 127 µg/mL (≈ 476 µM)
[4]; Root rot
  ACTIVITY RATING (0-3): 0
[5]; [12]
  EC50: 126 µg/mL (≈ 470 µM)
[5]; Root rot
  ACTIVITY RATING (0-3): 0
[6]; [12]
  EC50: 106 µg/mL (≈ 398 µM)
[6]; Root rot
  ACTIVITY RATING (0-3): 0
Rhizoctonia solani 15-9; Rhizoctonia solani, 159, 96 h, Czapek-Dox agar, 4 days at 18° C., log-log fit
  EC50: 162 µg/mL (≈ 607 µM)
Rhizoctonia solani 15-9; Sheath blight
  ACTIVITY RATING (0-3): 0
Rhizoctonia solani 15-10; Rhizoctonia solani, 1510, 96 h, Czapek-Dox agar, 4 days at 18° C., log-log fit
  EC50: 132 µg/mL (≈ 494 µM)
Rhizoctonia solani 15-10; Sheath blight
  ACTIVITY RATING (0-3): 0
[7]; [13]
  EC50: 109 µg/mL (≈ 407 µM)
[7]; Root rot
  ACTIVITY RATING (0-3): 0
[8]; [13]
  EC50: 112 µg/mL (≈ 421 µM)
[8]; Root rot
  ACTIVITY RATING (0-3): 0
[9]; Fusarium oxysporum, 96 h
  EC50: 36100 µg/mL (≈ 135000 µM)
[9]; Root rot
  ACTIVITY RATING (0-3): 0
Septoria nodorum
  ACTIVITY RATING (0-3): 0
Phytopthera infestans
  ACTIVITY RATING (0-3): 0
Colletotrichum trifolii
  ACTIVITY RATING (0-3): 0
[10]
  activity against soybean pathogens (in words): little or no activity
